Target: ROS (Homo sapiens, UniProt P08922)
Experiment: In vitro ROS enzymatic reaction assay (HTRF, Cisbio)
Type: biochemical
Parameters: ROS or EGFR enzyme, 0.008 ng/ul
Details: for inhibition at 10 µM / inhibition at 5 µM / Kinase Inhib. 5 uM (%) / Kinase Inhib. 10 uM (%): ROS kinase; for inhibition at 10 µM / Kinase Inhib. 10 uM (%): compound at 10 uM; for inhibition at 10 µM: read-out: Kinase Inhib. 10 uM (%); for inhibition at 5 µM / Kinase Inhib. 5 uM (%): compound at 5 uM; for inhibition at 5 µM: read-out: Kinase Inhib. 5 uM (%)
Experimental: The ROS enzymatic reactions were carried out with a high throughput screening platform for phosphor-detection of kinase activity. This platform based on homogeneous time resolved fluorescence (HTRF) technology from Cisbio Bioassays, Inc. (Cisbio). […] The reaction was allowed to proceed for 30 minutes at room temperature. An equal volume of detection buffer was then added to the reaction mix.

ROS, sequence (P08922 28-2347): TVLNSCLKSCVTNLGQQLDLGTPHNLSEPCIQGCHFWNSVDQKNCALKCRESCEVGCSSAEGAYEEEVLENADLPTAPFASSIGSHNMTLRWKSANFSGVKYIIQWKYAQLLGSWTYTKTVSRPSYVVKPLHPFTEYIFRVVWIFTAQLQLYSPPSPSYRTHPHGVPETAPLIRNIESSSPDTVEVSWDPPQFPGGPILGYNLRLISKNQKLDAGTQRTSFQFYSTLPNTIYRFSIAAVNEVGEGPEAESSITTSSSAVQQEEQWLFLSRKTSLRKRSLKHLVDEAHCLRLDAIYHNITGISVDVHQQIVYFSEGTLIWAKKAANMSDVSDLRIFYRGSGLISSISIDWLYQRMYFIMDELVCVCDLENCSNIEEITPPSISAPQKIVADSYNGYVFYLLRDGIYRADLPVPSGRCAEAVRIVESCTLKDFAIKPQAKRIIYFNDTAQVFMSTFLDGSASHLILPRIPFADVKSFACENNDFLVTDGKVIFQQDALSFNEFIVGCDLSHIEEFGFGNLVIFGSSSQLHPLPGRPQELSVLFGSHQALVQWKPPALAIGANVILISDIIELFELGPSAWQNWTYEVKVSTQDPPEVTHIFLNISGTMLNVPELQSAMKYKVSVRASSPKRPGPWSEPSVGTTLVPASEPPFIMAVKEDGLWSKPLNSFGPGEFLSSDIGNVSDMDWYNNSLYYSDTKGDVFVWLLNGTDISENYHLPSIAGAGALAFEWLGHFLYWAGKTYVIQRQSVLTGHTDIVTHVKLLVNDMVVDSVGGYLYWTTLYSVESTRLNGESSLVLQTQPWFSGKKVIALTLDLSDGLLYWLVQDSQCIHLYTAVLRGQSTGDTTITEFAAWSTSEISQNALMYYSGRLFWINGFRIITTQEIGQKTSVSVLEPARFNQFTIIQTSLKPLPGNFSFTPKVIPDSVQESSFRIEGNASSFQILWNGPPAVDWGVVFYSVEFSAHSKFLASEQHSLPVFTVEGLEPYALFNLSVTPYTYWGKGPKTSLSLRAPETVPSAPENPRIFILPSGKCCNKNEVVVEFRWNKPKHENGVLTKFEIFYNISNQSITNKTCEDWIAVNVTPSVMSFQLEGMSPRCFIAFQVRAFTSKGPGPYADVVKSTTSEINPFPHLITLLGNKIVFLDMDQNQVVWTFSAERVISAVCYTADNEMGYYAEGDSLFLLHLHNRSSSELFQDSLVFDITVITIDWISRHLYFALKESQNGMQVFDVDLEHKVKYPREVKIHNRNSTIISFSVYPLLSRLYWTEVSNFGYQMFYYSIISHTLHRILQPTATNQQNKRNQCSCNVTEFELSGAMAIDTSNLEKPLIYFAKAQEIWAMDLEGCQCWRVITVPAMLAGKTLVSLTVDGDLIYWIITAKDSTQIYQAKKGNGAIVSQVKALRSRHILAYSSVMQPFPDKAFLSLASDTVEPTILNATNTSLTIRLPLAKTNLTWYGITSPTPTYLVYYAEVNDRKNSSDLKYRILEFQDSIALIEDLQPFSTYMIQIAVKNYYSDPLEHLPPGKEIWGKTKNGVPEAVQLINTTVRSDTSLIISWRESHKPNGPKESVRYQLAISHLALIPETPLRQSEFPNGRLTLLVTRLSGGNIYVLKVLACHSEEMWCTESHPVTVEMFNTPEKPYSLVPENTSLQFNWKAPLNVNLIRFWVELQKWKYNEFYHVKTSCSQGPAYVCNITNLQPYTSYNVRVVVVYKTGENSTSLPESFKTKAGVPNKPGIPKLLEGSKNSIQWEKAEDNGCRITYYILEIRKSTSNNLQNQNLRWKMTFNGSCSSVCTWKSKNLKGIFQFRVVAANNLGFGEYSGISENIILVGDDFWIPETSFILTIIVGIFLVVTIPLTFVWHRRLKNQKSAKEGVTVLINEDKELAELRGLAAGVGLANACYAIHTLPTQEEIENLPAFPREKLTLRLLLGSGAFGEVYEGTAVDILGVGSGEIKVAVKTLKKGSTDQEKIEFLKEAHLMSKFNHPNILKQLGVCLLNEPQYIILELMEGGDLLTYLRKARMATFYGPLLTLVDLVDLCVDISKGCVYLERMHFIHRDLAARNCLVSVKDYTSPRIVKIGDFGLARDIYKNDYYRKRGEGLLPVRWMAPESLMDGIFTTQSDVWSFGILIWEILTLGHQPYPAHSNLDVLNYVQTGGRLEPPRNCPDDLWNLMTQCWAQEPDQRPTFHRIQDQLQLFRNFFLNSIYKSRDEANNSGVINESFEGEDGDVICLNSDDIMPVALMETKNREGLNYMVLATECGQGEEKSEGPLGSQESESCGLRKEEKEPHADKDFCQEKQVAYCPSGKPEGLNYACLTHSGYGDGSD

Row | SMILES | IC50 | inhibition at 5 µM | further results
1 | CSc1sc(-c2n[nH]cc2Br)c2c1C(=O)CC(C)(C)C2 [drawing 259] | 10000 nM |  | inhibition at 10 µM: 34%
2 | O=C(CCn1ccc2ccccc21)Nc1ccc(F)cc1 [drawing 338] |  |  | inhibition at 10 µM: 23.2%
3 | COc1ccc(C(F)(F)F)cc1NC(=O)CCn1ccc2ccccc21 [drawing 339] |  |  | inhibition at 10 µM: 26.4%
4 | CC(C)c1nc(Nc2ccc(C(=O)N3CCN(C)CC3)cc2)nc(Nc2ccc3ncsc3c2)n1 [drawing 321] | 3890 nM | 90.7% | 
5 | CC(C)c1nc(Nc2ccc(N)cc2)nc(Nc2ccc3ncsc3c2)n1 | 746 nM |  | 
6 | Nc1cccc2cccc(N=C(CC(=O)O)C(=O)O)c12 [drawing 344] |  |  | inhibition at 10 µM: 24.6%
7 | COc1cccc(Nc2cc(Nc3cccc(C(=O)N4CCN(C(C)=O)CC4)c3)nc(N)n2)c1 [drawing 240] |  | 22.3% | 
8 | Cc1cccc(Nc2nccc(Nc3cccc(C(=O)N(C)CCCN(C)C)c3)n2)c1 [drawing 288] |  | 98.6% | 
9 | Cc1cc(C)c(NC(=O)c2cc3ccccc3c(=O)s2)c(-c2cc(C)[nH]n2)c1 [drawing 263] |  |  | Kinase Inhib. 5 uM (%): 21.55%
10 | CC(=O)N[C@@H]1CCN(C(=O)c2cccc(Nc3cc(N(C)c4cccc(C)c4)ncn3)c2)C1 [drawing 241] |  | 29.6% | 
11 | Cc1ccc(F)cc1S(=O)(=O)Nc1cccc(C(=O)OCC(=O)NC2CCCCC2)c1 [drawing 267] |  | 20% | 
12 | CC(C)c1nc(Nc2ccc(C(=O)NCc3ccccc3)cc2)nc(Nc2ccc3ncsc3c2)n1 [drawing 322] | 3690 nM | 97.4% | 
13 | O=C(c1ccccc1)n1nc(-c2ccco2)nc1NCc1ccc(Cl)cc1 [drawing 295] |  | 26.6% | 
14 | O=C(NCCN1CCOCC1)c1cccc(Nc2nccc(Nc3ccc4ncsc4c3)n2)c1 [drawing 274] |  | 101% | 
15 | CC(C)(C)c1cc(C(=O)NNc2cccc(Cl)c2)n(Cc2ccccc2)n1 [drawing 252] |  |  | Kinase Inhib. 10 uM (%): 27.16%
16 | Nc1nc(N)n(-c2ccccc2)/c(=N/c2ccccc2)n1 [drawing 258] | > 100000 nM |  | inhibition at 10 µM: 34.5%
17 | CC(C)c1nc(Nc2cccc(Br)c2)nc(Nc2ccc3ncsc3c2)n1 | 86 nM |  | 
18 | O=C1c2ccccc2C(=O)N1C[C@H](O)Cn1nc(-c2cccs2)c2ccccc2c1=O [drawing 268] |  |  | Kinase Inhib. 5 uM (%): 20.74%
19 | Cc1cccc(Nc2nccc(Nc3cccc(C(=O)NCc4ccccc4F)c3)n2)c1 [drawing 275] |  | 33.3% | 
20 | CCOC(=O)c1ccc(NC(=O)CCn2ccc3ccccc32)cc1 [drawing 336] |  |  | inhibition at 10 µM: 24.5%
21 | Cc1cccc(Nc2nccc(Nc3cccc(C(=O)NCc4ccc(F)cc4)c3)n2)c1 [drawing 242] |  | 23.7% | 
22 | COc1ccccc1C1C(C#N)=C(N)Oc2[nH]nc(C)c21 (stereo not drawn) |  |  | Kinase Inhib. 5 uM (%): 27.58%
23 | CC(C)c1nc(Nc2ccc3ncsc3c2)nc(N2CCOCC2)n1 [drawing 315] | > 5000 nM | 23.5% | 
24 | Cn1c(=O)c2c(nc3n(CCO)c(-c4ccccc4)cn23)n(C)c1=O [drawing 265] |  |  | Kinase Inhib. 5 uM (%): 26.87%
25 | COc1ccc(Nc2nc(N(C)CCO)nc3c2cnn3-c2ccccc2)cc1 [drawing 250] |  |  | Kinase Inhib. 5 uM (%): 41.55%
26 | O=c1cc(Oc2ccccc2)c(-c2nc[nH]n2)nn1-c1ccccc1 [drawing 228] |  |  | Kinase Inhib. 10 uM (%): 20.40%

Row | SMILES | IC50 | inhibition at 5 µM | further results
27 | O=c1nc2[nH]c3ccc([N+](=O)[O-])cc3nc-2c(=O)[nH]1 |  |  | Kinase Inhib. 5 uM (%): 26.23%
28 | CC(C)c1nc(NCC2CCCCC2)nc(Nc2ccc3ncsc3c2)n1 | 528 nM |  | 
29 | Clc1ccc(CNc2cc(-c3ccccc3)ncn2)cc1 [drawing 246] |  |  | inhibition at 10 µM: 21.2%
30 | CC(C)c1nc(Nc2cccc(OC(F)(F)F)c2)nc(Nc2cc(C3CC3)n[nH]2)n1 | 40 nM |  | 
31 | NC(Cc1ccccc1)C(=O)n1ccc2cccnc21 (stereo not drawn) [drawing 342] |  |  | inhibition at 10 µM: 26.9%
32 | COc1ccccc1-c1cc(C(F)F)n2ncc(C(=O)NCc3cccnc3)c2n1 [drawing 224] | 4000 nM |  | inhibition at 10 µM: 35%
33 | Cc1cc(=O)n2nc(CC(=O)c3ccccc3)[nH]c2n1 |  | 33.2% | 
34 | Nc1nc(Nc2ccc(C(=O)N3CCCC4CCCCC43)cc2)cc(Nc2ccc3ncsc3c2)n1 (stereo not drawn) |  |  | Kinase Inhib. 5 uM (%): 27.92%
35 | CC(C)c1nc(Nc2ccc(Br)cc2)nc(Nc2cc(C3CC3)n[nH]2)n1 | 67 nM |  | 
36 | Cc1cccc(C(=O)n2nc(-c3ccco3)nc2NCc2ccccc2)c1 [drawing 294] |  |  | Kinase Inhib. 5 uM (%): 25.09%
37 | O=C1NN=C(c2ccccc2)/C1=C1\OC(c2ccccc2)=CS1 [drawing 255] | 160 nM | 69.2% | inhibition at 10 µM: 77.8%
38 | COc1ccc(NC(=O)CCn2ccc3ccccc32)cc1 [drawing 337] |  |  | inhibition at 10 µM: 29.5%
39 | Nc1nc(Nc2ccc(C(=O)NCCc3ccncc3)cc2)cc(Nc2ccc3ncsc3c2)n1 [drawing 280] |  | 61.1% | 
40 | CC1=NNC(=O)/C1=C\c1cn(-c2ccccc2)nc1-c1ccccc1 [drawing 266] | 1220 nM | 62% | 
41 | O=C(c1ccc(Nc2ncc(Br)c(Nc3ccc4ncsc4c3)n2)cc1)N1CCCCC1 | 620 nM |  | 
42 | Cc1cccc(Nc2nccc(Nc3cccc(C(=O)NCCN4CCOCC4)c3)n2)c1 [drawing 244] | 2100 nM | 98.4% | 
43 | O=C(c1cccc(Nc2nccc(Nc3ccc4ncsc4c3)n2)c1)N1CCCCCC1 [drawing 284] | 450 nM | 100% | 
44 | Cc1cccc(Nc2ccnc(Nc3cccc(C(=O)N4CC=CCC4)c3)n2)c1 [drawing 234] | 80 nM | 94.2% | 
45 | CC(C)c1nc(Nc2ccc(N)cc2)nc(Nc2cc(C3CC3)[nH]n2)n1 [drawing 324] | > 5000 nM | 20.4% | 
46 | COc1ccccc1NC(=O)C1=C(C)Nc2ncnn2C1c1ccc[nH]1 (stereo not drawn) |  |  | Kinase Inhib. 5 uM (%): 40.40%
47 | CC(C)c1nc(Nc2ccc(C(=O)N3CCCC3)cc2)nc(Nc2ccc3ncsc3c2)n1 [drawing 320] | 1880 nM | 92.5% | 
48 | Cc1ccc(-n2cc(-c3cccs3)nc2SCc2n[nH]c(=S)n2Cc2ccccc2)cc1 [drawing 256] |  |  | Kinase Inhib. 10 uM (%): 28.13%
49 | O=C(NCC1CCCO1)c1cccc(Nc2nccc(Nc3ccc4ncsc4c3)n2)c1 (stereo not drawn) |  | 101% | 
50 | O=C(NCC1Cc2cc(-c3cncnc3)cc(Cl)c2O1)c1cccc(Cn2cccn2)c1 (stereo not drawn) | > 100000 nM |  | Kinase Inhib. 10 uM (%): 30.25%
51 | Clc1ccc2nc(NCc3ccccn3)nc(-c3ccccc3)c2c1 [drawing 220] |  |  | inhibition at 10 µM: 25%
52 | O=C1NCCN1CCN1C(=O)c2ccccc2N[C@H]1c1ccccc1 [drawing 254] |  |  | inhibition at 10 µM: 20.3%

Row | SMILES | IC50 | inhibition at 5 µM | further results
53 | O=C(NCc1ccco1)c1cccc(Nc2nccc(Nc3ccc4ncsc4c3)n2)c1 [drawing 239] | 160 nM | 101% | 
54 | COc1cccc(Nc2nc(N)c(C(=O)c3c(C)[nH]c4ccccc34)s2)c1 [drawing 247] |  |  | inhibition at 10 µM: 28.5%
55 | CCOc1nc(Nc2cccc(Cc3nc4ccccc4s3)c2)nc(C(C)C)n1 | 9260 nM |  | 
56 | C[C@@H](Oc1cc(-c2cnn(C3CCNCC3)c2)cnc1N)c1c(Cl)ccc(F)c1Cl [drawing 354] |  | 100% | 
57 | NC(=O)c1c(NC(=O)[C@H]2CC(=O)N(c3ccccc3)C2)sc2c1CCCC2 [drawing 219] | 1300 nM |  | inhibition at 10 µM: 41.5%
58 | O=C(c1ccccc1)c1nc(-c2ccco2)[nH]c1NCc1ccccc1 |  |  | Kinase Inhib. 5 uM (%): 25.92%
59 | O=C(NCC1CCCCC1)c1cccc(Nc2nccc(Nc3ccc4ncsc4c3)n2)c1 [drawing 270] |  | 32.6% | 
60 | CC(C)c1nc(Nc2ccc(C(=O)NC3CCCCC3)cc2)nc(Nc2ccc3ncsc3c2)n1 [drawing 319] | 760 nM | 98.8% | 
61 | Cc1c(Br)c([N+](=O)[O-])nn1[C@H](C)C(=O)Nc1c(C)n(C)n(-c2ccccc2)c1=O | > 100000 nM |  | inhibition at 10 µM: 34.1%
62 | Cc1[nH]c2nc(NCc3cccc([N+](=O)[O-])c3)nn2c(=O)c1Cc1ccccc1 [drawing 222] |  |  | Kinase Inhib. 10 uM (%): 23.83%
63 | Cc1ccc(NC(=O)CCn2ccc3ccccc32)cc1 [drawing 335] |  |  | inhibition at 10 µM: 27.5%
64 | O=C(NNc1cc(C(F)(F)F)ccc1Cl)c1cccnc1Oc1ccccc1 [drawing 253] | > 100000 nM |  | inhibition at 10 µM: 31.2%
65 | O=C(NCc1cccs1)c1cccc(Nc2nccc(Nc3ccc4ncsc4c3)n2)c1 [drawing 273] | 435 nM | 101% | 
66 | CC(C)(CO)NC(=O)c1cccc(Nc2nccc(Nc3ccc4ncsc4c3)n2)c1 [drawing 271] | 361 nM | 96.3% | 
67 | CC(C)c1nc(Nc2ccc(C(=O)N3CCOCC3)cc2)nc(Nc2ccc3ncsc3c2)n1 [drawing 323] | 333 nM | 65.7% | 
68 | CC(C)c1nc(Nc2cccc(Br)c2)nc(Nc2cc(C3CC3)n[nH]2)n1 | 38 nM |  | 
69 | COc1ccc(N/C=C2\C(=O)NN=C2c2ccccc2)cc1 [drawing 232] |  | 34.2% | 
70 | Cc1cc(C)n(-c2cccc(C(=O)NCC3Cc4cc(Cl)cc(-c5cnccn5)c4O3)c2)n1 (stereo not drawn) | > 100000 nM |  | Kinase Inhib. 10 uM (%): 29.68%
71 | CCc1cc(Br)ccc1NC(=O)CCn1ccc2ccccc21 [drawing 341] |  |  | inhibition at 10 µM: 20.8%
72 | Cc1nc2cc(C(=O)N[C@H](c3ccccc3)c3cccnc3)ccc2[nH]1 [drawing 261] |  | 23.6% | 
73 | CC(C)CN(CC(C)C)C(=O)c1cccc(Nc2nccc(Nc3ccc4ncsc4c3)n2)c1 [drawing 287] | 1300 nM | 99.6% | 
74 | Cc1cc(-c2ccccc2)c2ccc(N)nc2n1 [drawing 343] |  |  | inhibition at 10 µM: 28.9%
75 | O=C(NCCc1ccc(F)cc1)c1cccc(Nc2nccc(Nc3ccc4ncsc4c3)n2)c1 [drawing 235] | 130 nM |  | Kinase Inhib. 5 uM (%): 100.68%
76 | Oc1[nH]nc2nnc(-c3ccccc3)c(-c3ccccc3)c12 [drawing 257] | 20400 nM |  | inhibition at 10 µM: 35.6%
77 | O=C(CCn1ccc2ccccc21)Nc1cnccn1 [drawing 340] |  |  | inhibition at 10 µM: 14.3%
78 | O=C(CC1=Nc2cccc3cccc(c23)NC1=O)NCc1cccc(I)c1 [drawing 346] |  |  | inhibition at 10 µM: 22.5%

From US9963452B2, “Methods, compounds, and compositions for inhibition of ROS” (AUGUSTA PHARMACEUTICALS INC., priority 2013, dated 2018)
